The values that follow come from US4263295A, “Psychoactive 3-(1-2-diarylethyl)-1,4,5,6-tetrahydro-1,2,4-triazines and their method of use” (The Dow Chemical Company, priority 1977, dated 1981).

Molecules are shown by their SMILES. Counter-ions that a name gives are not always drawn.

In one assay the test system is depression. To be noted: U.S. Pat. No. 3,471,486; Journal of Medicinal Chemistry, 12, 257 (1969); cited from earlier work.
Another assay concerns anxiety. The assay can be described thus: Antianxiety activity, test not specified (background and summary statements). The class given is in vivo. To be noted: test not stated.
The test system of the next assay is reserpine-induced ptosis. The assay can be described thus: Protection against reserpine-induced ptosis (antidepressant). The assay is classed as in vivo. To be noted: Mus musculus; mice, 30 mg/kg i.p.; reserpine 2.5 mg/kg s.c. after 30 minutes; graded after 45 minutes; saline control 0. The procedure: Groups of four mice were administered 30 mg/kg of the 3-(1,2-diarylethyl)-1,4,5,6-tetrahydro-1,2,4-triazine compounds by intraperitoneal injection via an aqueous carrier. A similar group of mice serving as controls were injected only with the carrier. After 30 minutes, both groups of mice were injected subcutaneously with 2.5 mg/kg of reserpine.
Animals injected with the triazine compound were graded after 45 minutes on the following basis: no ptosis=0, partial ptosis=1, complete ptosis=2. Complete protection against reserpine-induced ptosis gives a value of 0 or 100%.

For assay [1], the system named is serum corticosteroid levels. Kind of assay: Block of stress-induced rise of serum corticosteroid levels (antianxiety). The class given is in vivo. The following applies: stressed male rats, 20 mg/kg i.p.; for response vs control in vivo at 20 mg/kg: Rattus norvegicus, ip, saline control 100, values below 100% are indicative of activity, read-out: Serum Corticosteroid Levels μg %. The procedure:
See British Medical Journal, 1971 (2), p. 310-313. Corticosteroid levels were compared between stressed male rats pretreated with 20 mg/kg of the active compound given by intraperitoneal injection to corticosteroid levels of stressed male rats pretreated with saline. Blood (3 ml) was collected by means of cardiac puncture after methoxyflurane anesthesia. Following clotting, the blood was centrifuged to separate the serum for use in the corticosteroid analysis. The analysis was carried out by adding 5 ml of methylene chloride to 300 μl of the serum sample and vortexing the sample for 15-20 seconds. The samples were then centrifuged at 41 xg for about 5 minutes. The lipid layer was removed by aspiration and 3 ml of the methylene chloride fraction was transferred to a clean tube. To this sample, 3 ml of fluorescence reagent (25% ethanol and 75% concentrated sulfuric acid) was added and vortexed for 5 seconds. Fluorescence development was complete in 20 minutes and was read on a Perkin-Elmer® fluorometer Model 204 at an exciter wavelength of 470 mμ and an analyzer wavelength of 530 mμ. This assay measures free cortisol and corticosterone. The corticosteroid values were calculated as follows: [formula] […] Values below 100% are indicative of activity.

Consider `c1ccc(CC(C2=NNCCN2)c2ccccc2)cc1` (stereo not drawn) [3-(1,2-diphenylethyl)-1,4,5,6-tetrahydro-1,2,4-triazine], for which the “antidepressant activity of prior-art compound (in words)” value in the assay with depression is “antidepressant”. The “antianxiety activity of prior-art compound (in words)” value in the assay with anxiety was “essentially inactive”.
`Clc1cccc(Cl)c1CC(C1=NNCCN1)c1ccccc1` (stereo not drawn) [Example 13, 3-(2-(2,6-Dichlorophenyl)-1-phenylethyl)-1,4,5,6-tetrahydro-1,2,4-triazine monohydrochloride]: in the assay on reserpine-induced ptosis, at 30 mg/kg the inhibition was 88%. Further, the response vs control in vivo at 20 mg/kg in assay [1] worked out at 39%.
Consider `Cl.Fc1ccc(CC(C2=NNCCN2)c2ccccc2)cc1` (stereo not drawn) [Example 1, 3-(2-(4-fluorophenyl)-1-phenylethyl)-1,4,5,6-tetrahydro-1,2,4-triazine monohydrochloride], for which testing at 30 mg/kg with reserpine-induced ptosis gave an inhibition of 63%. Moreover, in assay [1], the response vs control in vivo at 20 mg/kg is 25% and the “antianxiety activity (in words, from Table II)” value is “especially active as antianxiety agents”.
On the same counts, the results for `Cl.Clc1ccc(CC(C2=NNCCN2)c2ccccc2)cc1` (stereo not drawn) [Example 2, 3-(2-(4-Chlorophenyl)-1-phenylethyl)-1,4,5,6-tetrahydro-1,2,4-triazine monohydrochloride] are 88%, 13% and “especially active as antianxiety agents”.
Take `Fc1cccc(CC(C2=NNCCN2)c2ccccc2)c1` (stereo not drawn) [Example 17]: 30 mg/kg produced 25% inhibition in the assay with reserpine-induced ptosis. The response vs control in vivo at 20 mg/kg in assay [1] stood at 62%.
Take `Cc1cccc(C(Cc2ccccc2)C2=NNCCN2)c1` (stereo not drawn) [Example 8]: the inhibition (commonly how much of the control response was suppressed) at 30 mg/kg in the assay with reserpine-induced ptosis amounted to 38%. The response vs control in vivo at 20 mg/kg in assay [1] is 52%.
In turn, `c1ccc(CC(C2=NNCCN2)c2ccc3ccccc3c2)cc1` (stereo not drawn) [Example 10, 3-(1-(2-Naphthalenyl)-2-phenylethyl)-1,4,5,6-tetrahydro-1,2,4-triazine monohydrochloride] had an inhibition at 30 mg/kg with reserpine-induced ptosis of 50%. Further, the response vs control in vivo at 20 mg/kg in assay [1] is 54%.
In the same order, the values of `CC(=O)N1CCN(C)N=C1C(Cc1ccccc1)c1ccccc1` (stereo not drawn) [Example 19, 4-acetyl-3-(1,2-diphenylethyl)-1,4,5,6-tetrahydro-1-methyl-1,2,4-triazine monohydrochloride] are 13% and 77%.
`c1ccc(CC(C2=NNCCN2)c2cccc3ccccc23)cc1` (stereo not drawn) [Example 11] displayed an inhibition at 30 mg/kg in the assay on reserpine-induced ptosis of 25%. Further, the response vs control in vivo at 20 mg/kg in assay [1] turned out to be 77%.
In the assay with reserpine-induced ptosis, `COc1ccc(C(Cc2ccc(F)cc2)C2=NNCCN2)cc1` (stereo not drawn) [Example 3, 3-(2-(4-Fluorophenyl)-1-(4-methoxyphenyl)ethyl)-1,4,5,6-tetrahydro-1,2,4-triazine monohydrochloride] yielded an inhibition at 30 mg/kg of 38%. Moreover, in assay [1], the response vs control in vivo at 20 mg/kg worked out at 82%.
As for `Cc1ccc(CC(C2=NNCCN2)c2ccccc2)cc1` (stereo not drawn) [Example 6], at 30 mg/kg the inhibition in the assay on reserpine-induced ptosis was 50%. Besides, the response vs control in vivo at 20 mg/kg in assay [1] is 62%.
On the same counts, the results for `CN1CCNC(C(Cc2ccc(Cl)cc2)c2ccccc2)=N1` (stereo not drawn) [Example 18, 3-(2-(4-Chlorophenyl)-1-phenylethyl)-1,4,5,6-tetrahydro-1-methyl-1,2,4-triazine monohydrochloride] are 50% and 77%.
In the same order, the values of `Cc1cccc(CC(C2=NNCCN2)c2ccccc2)c1` (stereo not drawn) [Example 5] are 25% and 32%.
In the same order, the values of `c1ccc(C(Cc2cccc3ccccc23)C2=NNCCN2)cc1` (stereo not drawn) [Example 15] are 13% and 72%.
`Clc1ccc(CC(C2=NNCCN2)c2ccccc2)cc1Cl` (stereo not drawn) [Example 14] showed an inhibition at 30 mg/kg in the assay on reserpine-induced ptosis of 63%. In addition, the response vs control in vivo at 20 mg/kg in assay [1] stood at 79%.
In the same order, the values of `Clc1cccc(CC(C2=NNCCN2)c2ccccc2)c1` (stereo not drawn) [Example 7] are 88% and 75%.
Turning to `Cc1ccc(CC(C2=NNCCN2)c2ccccc2)cc1C` (stereo not drawn) [Example 12], the inhibition at 30 mg/kg with reserpine-induced ptosis was determined as 25%. Also, in assay [1], the response vs control in vivo at 20 mg/kg is 33% and the “antianxiety activity (in words, from Table II)” value is recorded as “especially active as antianxiety agents”.
In the same order, the values of `c1ccc(C(Cc2ccc3ccccc3c2)C2=NNCCN2)cc1` (stereo not drawn) [Example 16] are 42%, 39% and “especially active as antianxiety agents”.
Turning to `Cc1ccc(C(Cc2ccccc2)C2=NNCCN2)cc1` (stereo not drawn) [Example 4, 3-(1-(4-Methylphenyl)-2-phenylethyl)-1,4,5,6-tetrahydro-1,2,4-triazine monohydrochloride], the inhibition at 30 mg/kg with reserpine-induced ptosis was found to be 38%. Moreover, the response vs control in vivo at 20 mg/kg in assay [1] was 67%.
For `c1ccc(CC(C2=NNCCN2)c2ccc3c(c2)OCO3)cc1` (stereo not drawn) [Example 9], the inhibition at 30 mg/kg with reserpine-induced ptosis came to 50%. Moreover, in assay [1], the response vs control in vivo at 20 mg/kg worked out at 33% and the “antianxiety activity (in words, from Table II)” value is “especially active as antianxiety agents”.
